“And” between values parts separate entries of the source, which are not always exact repeats. Equal entries are not always repeated. Inconclusive results and toxic doses are left out. No stated cut-off is given here; in the data, active means T/C of 150% or more; inactive means T/C below 125%.
Test system: L1210 leukemia ip in BDF1 mice, survival T/C
Assay: NCI In Vivo Anticancer Drug Screen. Data for tumor model L1210 Leukemia (intraperitoneal) in B6D2F1 (BDF1) mice
Conditions: endpoint: mean survival time, higher = longer survival
How it was run: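 Ratio derived from survival: compound-dosed mice over vehicle-dosed mice, all bearing a transplantable tumor.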

[1] = dose: 12.5 mg/kg/injection, schedule: Q01DX009 (ip), vehicle: Klucel (hydroxypropylcellulose) (HPC)
[2] = dose: 25.0 mg/kg/injection, schedule: Q01DX009 (ip), vehicle: Klucel (hydroxypropylcellulose) (HPC)
[3] = dose: 50.0 mg/kg/injection, schedule: Q01DX009 (ip), vehicle: Klucel (hydroxypropylcellulose) (HPC)
[4] = dose: 100.0 mg/kg/injection, schedule: Q01DX009 (ip), vehicle: Klucel (hydroxypropylcellulose) (HPC)
[5] = dose: 100.0 mg/kg/injection, schedule: Q04DX003 (ip), vehicle: Klucel (hydroxypropylcellulose) (HPC)
[6] = dose: 100.0 mg/kg/injection, schedule: Q04DX003 (ip), vehicle: saline with Tween-80
[7] = dose: 200.0 mg/kg/injection, schedule: Q04DX003 (ip), vehicle: saline with Tween-80
[8] = dose: 400.0 mg/kg/injection, schedule: Q04DX003 (ip), vehicle: saline with Tween-80
[9] = dose: 100.0 mg/kg/injection, schedule: Q01DX001 (ip), vehicle: Klucel (hydroxypropylcellulose) (HPC)
[10] = dose: 200.0 mg/kg/injection, schedule: Q01DX001 (ip), vehicle: Klucel (hydroxypropylcellulose) (HPC)
[11] = dose: 400.0 mg/kg/injection, schedule: Q01DX001 (ip), vehicle: Klucel (hydroxypropylcellulose) (HPC)
[12] = dose: 200.0 mg/kg/injection, schedule: Q01DX009 (ip), vehicle: Klucel (hydroxypropylcellulose) (HPC)
[13] = dose: 200.0 mg/kg/injection, schedule: Q04DX003 (ip), vehicle: Klucel (hydroxypropylcellulose) (HPC)
[14] = dose: 400.0 mg/kg/injection, schedule: Q01DX009 (ip), vehicle: Klucel (hydroxypropylcellulose) (HPC)
[15] = dose: 400.0 mg/kg/injection, schedule: Q04DX003 (ip), vehicle: Klucel (hydroxypropylcellulose) (HPC)
[16] = dose: 100.0 mg/kg/injection, schedule: Q01DX001 (ip), vehicle: saline
[17] = dose: 200.0 mg/kg/injection, schedule: Q01DX001 (ip), vehicle: saline
[18] = dose: 400.0 mg/kg/injection, schedule: Q01DX001 (ip), vehicle: saline

Measured: T/C

O=C(CCCN1CC=C(n2c(=O)[nH]c3ccccc32)CC1)c1ccc(F)cc1
inactive: dose: 6.25 mg/kg/injection, schedule: Q01DX009 (ip), vehicle: Klucel (hydroxypropylcellulose) (HPC) 100 % of control | dose: 6.25 mg/kg/injection, schedule: Q04DX003 (ip), vehicle: Klucel (hydroxypropylcellulose) (HPC) 103 % of control | [1] 104 % of control | dose: 12.5 mg/kg/injection, schedule: Q04DX003 (ip), vehicle: Klucel (hydroxypropylcellulose) (HPC) 103 % of control | [2] 98 % of control | dose: 25.0 mg/kg/injection, schedule: Q04DX003 (ip), vehicle: Klucel (hydroxypropylcellulose) (HPC) 103 % of control | [3] 102 % of control | dose: 50.0 mg/kg/injection, schedule: Q04DX003 (ip), vehicle: Klucel (hydroxypropylcellulose) (HPC) 106 % of control | [4] 94 % of control | [5] 101 % of control and 111 % of control

CCCCCCC(=O)C1C(c2ccc(N(C)C)cc2)CC(=O)C(CCCCC)C1c1ccc(N(C)C)cc1 (centres undefined)
inactive: dose: 100.0 mg/kg/injection, schedule: Q01DX009 (ip), vehicle: saline with Tween-80 86 % of control | [6] 89 % of control | dose: 200.0 mg/kg/injection, schedule: Q01DX009 (ip), vehicle: saline with Tween-80 95 % of control | [7] 90 % of control | dose: 400.0 mg/kg/injection, schedule: Q01DX009 (ip), vehicle: saline with Tween-80 95 % of control | [8] 92 % of control

CCN(CCO)c1ccc(N=Nc2ccc([N+](=O)[O-])cc2)cc1
inactive: [9] 105 % of control | [10] 96 % of control | [11] 100 % of control

Cc1cc(C)c2c(c1)CC2=O
inactive: dose: 50.0 mg/kg/injection, schedule: Q04DX002 (ip), vehicle: Klucel (hydroxypropylcellulose) (HPC) 96 % of control | dose: 100.0 mg/kg/injection, schedule: Q04DX002 (ip), vehicle: Klucel (hydroxypropylcellulose) (HPC) 112 % of control | dose: 200.0 mg/kg/injection, schedule: Q04DX002 (ip), vehicle: Klucel (hydroxypropylcellulose) (HPC) 86 % of control

CC(=O)OC1(C[N+](=O)[O-])CCCCC1
inactive: dose: 50.0 mg/kg/injection, schedule: Q01DX001 (ip), vehicle: saline with Tween-80 93 % of control | dose: 100.0 mg/kg/injection, schedule: Q01DX001 (ip), vehicle: saline with Tween-80 101 % of control | dose: 200.0 mg/kg/injection, schedule: Q01DX001 (ip), vehicle: saline with Tween-80 101 % of control

CC(=O)C1CCC=C2C1CC1CC2C1(C)C (centres undefined)
inactive: [4] 106 % of control | [5] 92 % of control | [12] 100 % of control | [13] 87 % of control | [14] 101 % of control | [15] 90 % of control

O=S(=O)(c1ccc(Cl)cc1)C(Cl)(Cl)Cl
inactive: [4] 93 % of control | [12] 97 % of control | [14] 96 % of control

Nc1cccc(C(=O)Nc2ccc(S(=O)(=O)F)cc2)c1
inactive: [16] 107 % of control | [17] 106 % of control | [18] 112 % of control

O=C1/C(=C\c2cccnc2)CCCc2ccccc21
inactive: dose: 100.0 mg/kg/injection, schedule: Q04DX003 (ip), vehicle: carboxymethylcellulose (CMC) 100 % of control | dose: 200.0 mg/kg/injection, schedule: Q04DX003 (ip), vehicle: carboxymethylcellulose (CMC) 98 % of control | dose: 400.0 mg/kg/injection, schedule: Q04DX003 (ip), vehicle: carboxymethylcellulose (CMC) 98 % of control

O=P(c1ccc(F)cc1)(c1ccc(F)cc1)c1ccc(F)cc1
inactive: [1] 101 % of control | [2] 103 % of control

NC(N)=N/N=C/N/N=C/c1ccccc1O
inactive: dose: 60.0 mg/kg/injection, schedule: Q01DX Z (oral), vehicle: carboxymethylcellulose (CMC) 91 % of control | dose: 120.0 mg/kg/injection, schedule: Q01DX Z (oral), vehicle: carboxymethylcellulose (CMC) 91 % of control | dose: 240.0 mg/kg/injection, schedule: Q01DX Z (oral), vehicle: carboxymethylcellulose (CMC) 100 % of control | dose: 480.0 mg/kg/injection, schedule: Q01DX Z (oral), vehicle: carboxymethylcellulose (CMC) 100 % of control

O=C(O)c1cccc(NC(=O)C(F)(F)F)c1
inactive: [9] 94 % of control | [5] 102 % of control | [10] 96 % of control | [13] 108 % of control | [11] 100 % of control | [15] 103 % of control

CC(=O)Cc1nc(N)nc(Nc2ccc(Cl)c(Cl)c2)n1
inactive: [6] 91 % of control | [7] 96 % of control | [8] 96 % of control

COC(=O)C1=CCC=CC1
inactive: [6] 102 % of control | [7] 96 % of control | [8] 93 % of control

CCCCCC(=O)Nc1cccc(O)c1
inactive: [6] 92 % of control | [7] 98 % of control

CCOC(C[N+](C)(C)CCC[N+](C)(C)CC(OCC)OCC)OCC
inactive: [16] 111 % of control | [17] 96 % of control | [18] 111 % of control

CCCCNC(=O)Nc1c(C)cccc1Cl
inactive: [4] 101 % of control | [5] 101 % of control | [12] 90 % of control | [13] 97 % of control | [14] 87 % of control | [15] 88 % of control

CC(=O)Nc1cccc(Cl)c1C
inactive: dose: 100.0 mg/kg/injection, schedule: Q01DX009 (ip), vehicle: saline sonified 97 % of control | dose: 100.0 mg/kg/injection, schedule: Q04DX003 (ip), vehicle: saline sonified 95 % of control | dose: 200.0 mg/kg/injection, schedule: Q01DX009 (ip), vehicle: saline sonified 91 % of control | dose: 200.0 mg/kg/injection, schedule: Q04DX003 (ip), vehicle: saline sonified 95 % of control | dose: 400.0 mg/kg/injection, schedule: Q01DX009 (ip), vehicle: saline sonified 91 % of control | dose: 400.0 mg/kg/injection, schedule: Q04DX003 (ip), vehicle: saline sonified 97 % of control

CC(C)CC(NC(=O)C(F)(F)F)C(=O)O (centres undefined)
inactive: [6] 97 % of control | [7] 90 % of control

[Cl][Pt][Cl].[NH-]CCN1CC1
inactive: dose: 5.0 mg/kg/injection, schedule: Q01DX009 (ip), vehicle: Klucel (hydroxypropylcellulose) (HPC) 114 % of control | dose: 10.0 mg/kg/injection, schedule: Q01DX009 (ip), vehicle: Klucel (hydroxypropylcellulose) (HPC) 110 % of control | dose: 20.0 mg/kg/injection, schedule: Q01DX009 (ip), vehicle: Klucel (hydroxypropylcellulose) (HPC) 98 % of control

CC1CCC(C(C)C)C(N(C)Cc2cc(Cl)cc(Cl)c2O)C1 (centres undefined)
inactive: [3] 107 % of control | [4] 105 % of control | [5] 104 % of control | [12] 107 % of control | [13] 98 % of control | [15] 101 % of control

ClC1(c2ccccc2)c2ccccc2C(Cl)(c2ccccc2)c2ccccc21 (centres undefined)
inactive: dose: 100.0 mg/kg/injection, schedule: Q04DX002 (ip), vehicle: saline with Tween-80 98 % of control | dose: 200.0 mg/kg/injection, schedule: Q04DX002 (ip), vehicle: saline with Tween-80 92 % of control | dose: 400.0 mg/kg/injection, schedule: Q04DX002 (ip), vehicle: saline with Tween-80 92 % of control
